In US12042564B2, “Therapeutic solid dosage forms” (CYBIN UK LTD, priority 2020, dated 2024):
Values joined by “and” are separate entries in the source; they are usually repeats but may differ in a detail not shown here. Equal values may be shown once.

Columns and labels:
[1] = Initial solubility test of DMT fumarate in aqueous vehicles; type: physicochemical
Method: Solubility of DMT fumarate was assessed at a concentration of 10 mg/ml in a small selection of aqueous vehicles (water, saline, 20 mM phosphate buffer and a combination of buffer and saline).
Phosphate buffer (100 ml) was prepared using 219.53 mg of the dibasic form [HPO4][Na]2 with 183.7 mg of the monobasic form [H2PO4]Na, both dihydrate salts. The solution was adjusted to pH 7.0 with addition of NaOH (1 M) and then made to volume. 10 ml of a 10 mg/ml formulation was prepared.
To prepare this, sodium chloride was first dissolved in water to produce the saline solution (100 ml, 0.45% w/v). The phosphate salts, in the quantities described above, were then dissolved in the saline solution and the pH was adjusted using NaOH (1 M).
The pH of these solutions was in the range 3-4.

[2] = cited from earlier work
[3] = Plasma IAA metabolite levels after oral dosing in rats; details: for Estimated IAA Concentration / Estimated IAA Concentration, Mean: rat plasma, PO Dose (25 mg/kg); for Estimated IAA Concentration: individual animal; for Estimated IAA Concentration, Mean: mean of animals
[4] = Plasma pharmacokinetics of test compound after oral dosing in rats; details: rat plasma; for Determined Concentration of test compound in plasma / Determined Concentration of test compound in plasma, Mean: oral dosing; for Determined Concentration of test compound in plasma: individual animal; for Determined Concentration of test compound in plasma, Mean: mean of 3 animals
[5] = Solubility of DMT fumarate at different pH values in Britton-Robinson buffer; details: before pH adjustment
[6] = system: human liver mitochondrial fraction; assay: Intrinsic clearance and half-life in human liver mitochondrial fraction; type: in vitro ADME; details: 0.5 mg/mL human liver mitochondrial fraction, 1 μM test compounds
From the text: Use of Liver Mitochondrial Fraction to Model Human Metabolism of Deuterated DMT

## CN(C)CCc1c[nH]c2ccccc12.O=C(O)/C=C/C(=O)O [SPL026, N,N-dimethyltryptamine (DMT) fumarate salt]
[1]; 10 mg/ml in aqueous vehicles
  pH of these solutions: 3-4
[1]; water, saline, 20 mM phosphate buffer, buffer and saline
  Solubility at a concentration of 10 mg/ml in aqueous vehicles: readily soluble
[2]; humans
  predicted half-life in humans: 5 min
[2]; psychedelic effect
  duration of action: under 20 minutes
[3]; rat plasma IAA (semi quantified) after 25 mg/kg PO of the compound
  Mean IAA Cmax: 9.204 ng/mL
[3]; rat plasma IAA after 25 mg/kg PO of the compound
  Mean IAA tmax: 30 min
[3]; 1 min
  Estimated IAA Concentration: BLQ
  Estimated IAA Concentration, Mean: BLQ
[3]; 5 min, fumarate salt, 25 mg/kg
  Estimated IAA Concentration: 0.549 ng/mL and 1.33 ng/mL and 1.64 ng/mL
[3]; 5 min
  Estimated IAA Concentration, Mean: 1.171 ng/mL
[3]; 10 min, fumarate salt, 25 mg/kg
  Estimated IAA Concentration: 1.08 ng/mL and 2.58 ng/mL and 4.39 ng/mL
[3]; 10 min
  Estimated IAA Concentration, Mean: 2.683 ng/mL
[3]; 15 min, fumarate salt, 25 mg/kg
  Estimated IAA Concentration: 1.82 ng/mL and 5.55 ng/mL and 6.09 ng/mL
[3]; 15 min
  Estimated IAA Concentration, Mean: 4.487 ng/mL
[3]; 30 min, fumarate salt, 25 mg/kg
  Estimated IAA Concentration: 7.08 ng/mL and 11.8 ng/mL and 8.88 ng/mL
[3]; 30 min
  Estimated IAA Concentration, Mean: 9.245 ng/mL
[3]; 45 min, fumarate salt, 25 mg/kg
  Estimated IAA Concentration: 5.10 ng/mL and 6.44 ng/mL and 9.98 ng/mL
[3]; 45 min
  Estimated IAA Concentration, Mean: 7.174 ng/mL
[3]; 60 min, fumarate salt, 25 mg/kg
  Estimated IAA Concentration: 6.18 ng/mL and 9.74 ng/mL and 11.7 ng/mL
[3]; 60 min
  Estimated IAA Concentration, Mean: 9.204 ng/mL
[3]; 120 min, fumarate salt, 25 mg/kg
  Estimated IAA Concentration: 7.40 ng/mL and 7.70 ng/mL and 8.67 ng/mL
[3]; 120 min
  Estimated IAA Concentration, Mean: 7.924 ng/mL
[3]; 180 min, fumarate salt, 25 mg/kg
  Estimated IAA Concentration: 4.34 ng/mL and 2.53 ng/mL and 3.08 ng/mL
[3]; 180 min
  Estimated IAA Concentration, Mean: 3.316 ng/mL
[3]; Predose
  Estimated IAA Concentration: BLQ
  Estimated IAA Concentration, Mean: BLQ
[4]; 25 mg/kg single oral gavage
  mean Cmax: 27.9 ng/mL
[4]; 1 min, fumarate salt
  Determined Concentration of test compound in plasma: BLQ (Below the lower limit of quantification 0.310 ng/mL) (2×) and 0.391 ng/mL
[4]; 1 min
  Determined Concentration of test compound in plasma, Mean: <0.3 ng/mL
[4]; 5 min, fumarate salt
  Determined Concentration of test compound in plasma: BLQ (Below the lower limit of quantification 0.310 ng/mL) (2×) and 0.590 ng/mL
[4]; 5 min
  Determined Concentration of test compound in plasma, Mean: <0.4 ng/mL
[4]; 10 min, fumarate salt
  Determined Concentration of test compound in plasma: BLQ (Below the lower limit of quantification 0.310 ng/mL) and 4.06 ng/mL and 20.7 ng/mL
[4]; 10 min
  Determined Concentration of test compound in plasma, Mean: <8.4 ng/mL
[4]; 15 min, fumarate salt
  Determined Concentration of test compound in plasma: 0.763 ng/mL and 19.9 ng/mL and 25.7 ng/mL
[4]; 15 min
  Determined Concentration of test compound in plasma, Mean: 15.5 ng/mL
[4]; 30 min, fumarate salt
  Determined Concentration of test compound in plasma: 7.77 ng/mL and 25.2 ng/mL and 29.5 ng/mL
[4]; 30 min
  Determined Concentration of test compound in plasma, Mean: 20.8 ng/mL
[4]; 45 min, fumarate salt
  Determined Concentration of test compound in plasma: 18.0 ng/mL and 18.5 ng/mL and 28.6 ng/mL
[4]; 45 min
  Determined Concentration of test compound in plasma, Mean: 21.7 ng/mL
[4]; 60 min, fumarate salt
  Determined Concentration of test compound in plasma: 16.9 ng/mL and 31.6 ng/mL and 34.1 ng/mL
[4]; 60 min
  Determined Concentration of test compound in plasma, Mean: 27.5 ng/mL
[4]; 120 min, fumarate salt
  Determined Concentration of test compound in plasma: 13.7 ng/mL and 11.7 ng/mL and 16.9 ng/mL
[4]; 120 min
  Determined Concentration of test compound in plasma, Mean: 14.1 ng/mL
[4]; 180 min, fumarate salt
  Determined Concentration of test compound in plasma: 5.83 ng/mL and 2.57 ng/mL and 2.45 ng/mL
[4]; 180 min
  Determined Concentration of test compound in plasma, Mean: 3.6 ng/mL
[4]; Predose
  Determined Concentration of test compound in plasma: BLQ (Below the lower limit of quantification 0.310 ng/mL)
  Determined Concentration of test compound in plasma, Mean: BLQ (Below the lower limit of quantification 0.310 ng/mL)
[5]
  dissolution at 20 mg/ml in Britton-Robinson buffer solution: very soluble
[6]; 5 μM Serotonin and Benzylamine controls, replicate 1
  Half-life (min) R1: 8.8 min
[6]; 5 μM controls, mean of replicates
  Half-life (min) Mean: 8.3 min
[6]; 5 μM controls, replicate 3
  Half-life (min) R3: 7.6 min
[6]; 5 μM controls, replicate 4
  Half-life (min) R4: 8.3 min
